How the values were obtained:
[1] = target: Sodium-dependent noradrenaline transporter (Homo sapiens) (UniProt P23975); conditions: Compound concentration 10.0 uM
[2] = target: 5'-AMP-activated protein kinase catalytic subunit alpha-2 (Homo sapiens) (UniProt P54646); assay: AMPKalpha2(h) Millipore kinase panel; conditions: Compound concentration 1.0 uM
[3] = target: Serine/threonine-protein kinase 17B (Homo sapiens) (UniProt O94768); assay: DRAK2(h) Millipore kinase panel; conditions: Compound concentration 1.0 uM
[4] = target: Ephrin type-B receptor 2 (Homo sapiens) (UniProt P29323); assay: EphB2(h) Millipore kinase panel; conditions: Compound concentration 1.0 uM
[5] = target: Serine/threonine-protein kinase pim-3 (Homo sapiens) (UniProt Q86V86); assay: Pim-3(h) Millipore kinase panel; conditions: Compound concentration 1.0 uM
[6] = target: Tyrosine-protein kinase JAK1 (Homo sapiens) (UniProt P23458); assay: JAK1(h) Millipore kinase panel; conditions: Compound concentration 1.0 uM
[7] = target: Calcium/calmodulin-dependent protein kinase type II subunit beta (Homo sapiens) (UniProt Q13554); assay: CaMKIIbeta(h) Millipore kinase panel; conditions: Compound concentration 1.0 uM
[8] = target: Beta-1 adrenergic receptor (Homo sapiens) (UniProt P08588); conditions: Compound concentration 10.0 uM
Sequence of Beta-1 adrenergic receptor (Homo sapiens) (P08588 whole entry, looked up): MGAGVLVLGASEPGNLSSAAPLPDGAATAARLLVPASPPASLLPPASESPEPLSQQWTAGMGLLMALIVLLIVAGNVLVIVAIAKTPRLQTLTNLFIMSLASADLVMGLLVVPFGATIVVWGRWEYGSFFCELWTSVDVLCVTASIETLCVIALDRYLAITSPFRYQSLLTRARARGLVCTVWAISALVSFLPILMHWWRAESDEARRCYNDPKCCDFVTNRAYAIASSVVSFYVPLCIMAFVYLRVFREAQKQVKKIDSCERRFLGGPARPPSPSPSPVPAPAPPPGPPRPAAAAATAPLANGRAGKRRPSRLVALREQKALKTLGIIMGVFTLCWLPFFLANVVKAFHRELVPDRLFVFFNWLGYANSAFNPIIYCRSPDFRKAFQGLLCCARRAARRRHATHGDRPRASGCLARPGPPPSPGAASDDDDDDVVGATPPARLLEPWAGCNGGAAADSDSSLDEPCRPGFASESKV

[9] = target: Calcium/calmodulin-dependent protein kinase type IV (Homo sapiens) (UniProt Q16566); assay: CaMKIV(h) Millipore kinase panel; conditions: Compound concentration 1.0 uM
[10] = target: Protein kinase C gamma type (Homo sapiens) (UniProt P05129); assay: PKCgamma(h) Millipore kinase panel; conditions: Compound concentration 1.0 uM
[11] = target: Dual specificity protein kinase CLK3 (Homo sapiens) (UniProt P49761); assay: CLK3(h) Millipore kinase panel; conditions: Compound concentration 1.0 uM
[12] = target: Tau-tubulin kinase 2 (Homo sapiens) (UniProt Q6IQ55); assay: TTBK2(h) Millipore kinase panel; conditions: Compound concentration 1.0 uM
Sequence of Tau-tubulin kinase 2 (Homo sapiens) (Q6IQ55 whole entry): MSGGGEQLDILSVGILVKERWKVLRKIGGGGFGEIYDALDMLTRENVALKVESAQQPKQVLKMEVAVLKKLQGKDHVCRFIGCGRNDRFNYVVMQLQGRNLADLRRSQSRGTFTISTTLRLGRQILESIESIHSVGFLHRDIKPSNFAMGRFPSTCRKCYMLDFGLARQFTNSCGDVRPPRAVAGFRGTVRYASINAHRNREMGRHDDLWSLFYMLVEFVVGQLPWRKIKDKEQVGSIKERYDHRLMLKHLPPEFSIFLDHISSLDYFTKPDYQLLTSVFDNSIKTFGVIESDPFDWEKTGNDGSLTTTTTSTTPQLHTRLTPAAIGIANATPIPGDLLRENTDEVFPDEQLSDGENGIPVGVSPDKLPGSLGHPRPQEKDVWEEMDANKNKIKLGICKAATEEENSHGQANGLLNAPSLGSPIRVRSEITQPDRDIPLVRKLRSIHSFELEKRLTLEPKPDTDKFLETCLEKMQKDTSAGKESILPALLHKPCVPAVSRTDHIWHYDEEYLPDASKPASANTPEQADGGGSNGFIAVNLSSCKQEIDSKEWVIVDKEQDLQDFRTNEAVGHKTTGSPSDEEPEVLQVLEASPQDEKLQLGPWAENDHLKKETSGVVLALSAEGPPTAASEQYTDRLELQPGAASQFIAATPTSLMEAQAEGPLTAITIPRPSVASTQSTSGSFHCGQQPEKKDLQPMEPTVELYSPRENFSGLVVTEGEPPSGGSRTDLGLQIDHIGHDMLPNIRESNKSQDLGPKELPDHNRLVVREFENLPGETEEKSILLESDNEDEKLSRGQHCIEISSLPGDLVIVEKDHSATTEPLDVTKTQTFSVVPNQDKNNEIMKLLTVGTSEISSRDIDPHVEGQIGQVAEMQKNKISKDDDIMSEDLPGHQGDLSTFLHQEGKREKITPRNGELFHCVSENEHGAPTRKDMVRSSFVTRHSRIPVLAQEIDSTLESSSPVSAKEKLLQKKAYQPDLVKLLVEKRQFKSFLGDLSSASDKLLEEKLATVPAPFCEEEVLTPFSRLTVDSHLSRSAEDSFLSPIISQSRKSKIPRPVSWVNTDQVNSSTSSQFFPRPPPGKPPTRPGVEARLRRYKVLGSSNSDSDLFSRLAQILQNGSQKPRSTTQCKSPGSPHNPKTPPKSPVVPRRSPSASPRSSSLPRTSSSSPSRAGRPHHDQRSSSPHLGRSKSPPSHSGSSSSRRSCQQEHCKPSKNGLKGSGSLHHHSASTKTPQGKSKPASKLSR

[13] = target: Proto-oncogene tyrosine-protein kinase Src (Homo sapiens) (UniProt P12931); assay: cSRC(h) Millipore kinase panel; conditions: Compound concentration 1.0 uM
Sequence of Proto-oncogene tyrosine-protein kinase Src (Homo sapiens) (P12931 2-536 limits assumed): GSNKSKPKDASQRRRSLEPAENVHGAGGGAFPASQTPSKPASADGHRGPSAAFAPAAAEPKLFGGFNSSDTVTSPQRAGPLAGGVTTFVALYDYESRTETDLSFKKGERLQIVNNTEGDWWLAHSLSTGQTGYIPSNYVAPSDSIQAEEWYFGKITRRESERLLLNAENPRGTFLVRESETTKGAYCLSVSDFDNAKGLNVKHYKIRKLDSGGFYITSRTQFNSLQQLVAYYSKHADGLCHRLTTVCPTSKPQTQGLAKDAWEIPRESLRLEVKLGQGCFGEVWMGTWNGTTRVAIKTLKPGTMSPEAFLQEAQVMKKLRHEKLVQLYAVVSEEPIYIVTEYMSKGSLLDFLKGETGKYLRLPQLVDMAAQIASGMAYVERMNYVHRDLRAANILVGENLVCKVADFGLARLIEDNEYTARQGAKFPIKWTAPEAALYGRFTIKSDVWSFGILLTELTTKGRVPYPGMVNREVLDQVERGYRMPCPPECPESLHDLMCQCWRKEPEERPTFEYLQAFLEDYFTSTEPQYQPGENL

[14] = target: Ribosomal protein S6 kinase alpha-6 (Homo sapiens) (UniProt Q9UK32); assay: Rsk4(h) Millipore kinase panel; conditions: Compound concentration 1.0 uM
[15] = target: D(2) dopamine receptor (Homo sapiens) (UniProt P14416); conditions: Compound concentration 10.0 uM
[16] = target: Serine/threonine-protein kinase TAO1 (Homo sapiens) (UniProt Q7L7X3); assay: TAO1(h) Millipore kinase panel; conditions: Compound concentration 1.0 uM
[17] = target: Phosphatidylinositol 5-phosphate 4-kinase type-2 alpha (Homo sapiens) (UniProt P48426); conditions: Compound concentration 1.0 uM
Sequence of Phosphatidylinositol 5-phosphate 4-kinase type-2 alpha (Homo sapiens) (P48426 whole entry): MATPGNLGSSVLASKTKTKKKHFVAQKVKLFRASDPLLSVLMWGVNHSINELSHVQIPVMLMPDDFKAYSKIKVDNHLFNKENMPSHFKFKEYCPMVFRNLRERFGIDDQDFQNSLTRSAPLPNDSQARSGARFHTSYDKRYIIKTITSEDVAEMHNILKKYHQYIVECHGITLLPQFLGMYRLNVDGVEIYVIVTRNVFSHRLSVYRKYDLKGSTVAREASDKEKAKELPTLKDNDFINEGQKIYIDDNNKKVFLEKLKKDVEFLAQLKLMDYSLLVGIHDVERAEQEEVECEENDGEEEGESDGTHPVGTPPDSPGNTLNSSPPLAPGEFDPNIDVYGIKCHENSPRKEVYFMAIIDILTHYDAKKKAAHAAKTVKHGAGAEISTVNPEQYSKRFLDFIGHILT

[18] = target: Growth hormone secretagogue receptor type 1 (Homo sapiens) (UniProt Q92847); conditions: Compound concentration 10.0 uM
[19] = target: G protein-coupled receptor kinase 5 (Homo sapiens) (UniProt P34947); assay: GRK5(h) Millipore kinase panel; conditions: Compound concentration 1.0 uM
[20] = target: Serine/threonine-protein kinase 33 (Homo sapiens) (UniProt Q9BYT3); assay: STK33(h) Millipore kinase panel; conditions: Compound concentration 1.0 uM
[21] = target: SRSF protein kinase 3 (Homo sapiens) (UniProt Q9UPE1); assay: MSSK1(h) Millipore kinase panel; conditions: Compound concentration 1.0 uM
[22] = target: Serine/threonine-protein kinase B-raf (Homo sapiens) (UniProt P15056); assay: BRaf(h) Millipore kinase panel; conditions: Compound concentration 1.0 uM
[23] = target: Serine/threonine-protein kinase TAO3 (Homo sapiens) (UniProt Q9H2K8); assay: TAO3(h) Millipore kinase panel; conditions: Compound concentration 1.0 uM
[24] = target: Serine/threonine-protein kinase 38-like (Homo sapiens) (UniProt Q9Y2H1); assay: NDR2(h) Millipore kinase panel; conditions: Compound concentration 1.0 uM
[25] = target: Tyrosine-protein kinase Mer (Homo sapiens) (UniProt Q12866); assay: Mer(h) Millipore kinase panel; conditions: Compound concentration 1.0 uM
Sequence of Tyrosine-protein kinase Mer (Homo sapiens) (Q12866 whole entry): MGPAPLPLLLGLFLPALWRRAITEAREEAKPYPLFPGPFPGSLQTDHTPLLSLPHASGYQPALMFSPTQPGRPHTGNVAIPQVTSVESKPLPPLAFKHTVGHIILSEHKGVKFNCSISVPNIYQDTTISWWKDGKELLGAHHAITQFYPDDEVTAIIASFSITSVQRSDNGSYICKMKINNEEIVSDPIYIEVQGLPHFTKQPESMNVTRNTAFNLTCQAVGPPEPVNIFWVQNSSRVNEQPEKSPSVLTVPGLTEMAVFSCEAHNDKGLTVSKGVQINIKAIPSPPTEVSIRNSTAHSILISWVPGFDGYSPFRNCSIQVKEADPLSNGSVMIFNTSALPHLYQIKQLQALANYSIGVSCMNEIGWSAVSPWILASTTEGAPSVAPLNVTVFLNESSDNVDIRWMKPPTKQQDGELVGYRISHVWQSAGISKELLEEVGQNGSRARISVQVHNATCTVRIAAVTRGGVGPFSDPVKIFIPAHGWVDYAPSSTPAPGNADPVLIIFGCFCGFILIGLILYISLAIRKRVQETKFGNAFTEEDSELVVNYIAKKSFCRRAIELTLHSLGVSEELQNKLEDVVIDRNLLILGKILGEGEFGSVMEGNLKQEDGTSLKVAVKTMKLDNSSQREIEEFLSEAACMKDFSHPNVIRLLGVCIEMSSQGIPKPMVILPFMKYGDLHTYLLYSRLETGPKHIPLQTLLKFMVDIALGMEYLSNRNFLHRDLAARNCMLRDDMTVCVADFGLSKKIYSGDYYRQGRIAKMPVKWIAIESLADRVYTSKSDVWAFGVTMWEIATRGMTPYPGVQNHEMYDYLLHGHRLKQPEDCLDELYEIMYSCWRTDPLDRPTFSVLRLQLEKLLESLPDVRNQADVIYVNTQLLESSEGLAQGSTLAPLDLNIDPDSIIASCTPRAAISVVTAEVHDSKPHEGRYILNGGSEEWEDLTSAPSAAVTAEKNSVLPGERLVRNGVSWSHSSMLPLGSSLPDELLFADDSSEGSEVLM

[26] = target: Serine/threonine-protein kinase A-Raf (Homo sapiens) (UniProt P10398); assay: A_Raf(h) Millipore kinase panel; conditions: Compound concentration 1.0 uM
[27] = target: Serine/threonine-protein kinase D1 (Homo sapiens) (UniProt Q15139); assay: PKCmu(h) Millipore kinase panel; conditions: Compound concentration 1.0 uM
[28] = organism: Rattus norvegicus; conditions: Compound concentration 10.0 uM
[29] = organism: Homo sapiens; assay: CDK9/cyclinT1(h) Millipore kinase panel; conditions: Compound concentration 1.0 uM
[30] = organism: Homo sapiens; assay: Cdc7/cyclinB(h) Millipore kinase panel; conditions: Compound concentration 1.0 uM
[31] = target: Mitogen-activated protein kinase kinase kinase kinase 5 (Homo sapiens) (UniProt Q9Y4K4); assay: MAP4K5(h) Millipore kinase panel; conditions: Compound concentration 1.0 uM
[32] = target: Prostaglandin G/H synthase 2 (Homo sapiens) (UniProt P35354); assay: Cyclooxygenase COX-2 Eurofins-Panlabs enzyme assay; parameters: substrate with concentration; conditions: Compound concentration 10.0 uM
[33] = target: Tau-tubulin kinase 1 (Homo sapiens) (UniProt Q5TCY1); assay: TTBK1(h) Millipore kinase panel; conditions: Compound concentration 1.0 uM
[34] = target: RAC-gamma serine/threonine-protein kinase (Homo sapiens) (UniProt Q9Y243); assay: PKBgamma(h) Millipore kinase panel; conditions: Compound concentration 1.0 uM
[35] = target: Inhibitor of nuclear factor kappa-B kinase subunit epsilon (Homo sapiens) (UniProt Q14164); assay: IKKepsilon(h Millipore kinase panel; conditions: Compound concentration 1.0 uM
[36] = target: Transcription initiation factor TFIID subunit 1-like (Homo sapiens) (UniProt Q8IZX4); assay: TAF1L(h) Millipore kinase panel; conditions: Compound concentration 1.0 uM
[37] = target: Serine/threonine-protein kinase PAK 2 (Homo sapiens) (UniProt Q13177); assay: PAK2(h) Millipore kinase panel; conditions: Compound concentration 1.0 uM
[38] = target: Interleukin-1 receptor-associated kinase 4 (Homo sapiens) (UniProt Q9NWZ3); assay: IRAK4(h) Millipore kinase panel; conditions: Compound concentration 1.0 uM
[39] = target: CDK6/cyclin D3 (Homo sapiens) (UniProt P30281+Q00534); assay: CDK6/cyclinD3(h) Millipore kinase panel; assay type: protein-complex assay; conditions: Compound concentration 1.0 uM
[40] = target: CDK3/cyclin E (Homo sapiens) (UniProt P24864+O96020+Q00526); assay: CDK3/cyclinE(h) Millipore kinase panel; assay type: protein-complex assay; conditions: Compound concentration 1.0 uM
[41] = target: Type-1 angiotensin II receptor (Homo sapiens) (UniProt P30556); conditions: Compound concentration 10.0 uM
Sequence of Type-1 angiotensin II receptor (Homo sapiens) (P30556 whole entry): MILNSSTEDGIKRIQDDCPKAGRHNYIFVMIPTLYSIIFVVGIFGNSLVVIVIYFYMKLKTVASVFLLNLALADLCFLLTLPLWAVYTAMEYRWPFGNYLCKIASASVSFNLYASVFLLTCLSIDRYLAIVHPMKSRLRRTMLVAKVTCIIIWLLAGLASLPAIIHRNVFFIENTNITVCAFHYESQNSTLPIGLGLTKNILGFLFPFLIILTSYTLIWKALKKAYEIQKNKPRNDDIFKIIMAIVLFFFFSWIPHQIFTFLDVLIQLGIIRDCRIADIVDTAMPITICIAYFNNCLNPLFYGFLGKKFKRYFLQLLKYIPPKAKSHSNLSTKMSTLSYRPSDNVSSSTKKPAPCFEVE

[42] = target: Glutamate receptor 2 (Homo sapiens) (UniProt P42262); conditions: Rattus norvegicus; Compound concentration 10.0 uM
[43] = target: 5-hydroxytryptamine receptor 2C (Homo sapiens) (UniProt P28335); conditions: Compound concentration 10.0 uM
[44] = target: B1 bradykinin receptor (Homo sapiens) (UniProt P46663); conditions: Compound concentration 10.0 uM
[45] = target: D(4) dopamine receptor (Homo sapiens) (UniProt P21917); conditions: Compound concentration 10.0 uM
[46] = target: Mu-type opioid receptor (Homo sapiens) (UniProt P35372); conditions: Compound concentration 10.0 uM

Measured: inhibition

Sequence of Sodium-dependent noradrenaline transporter (Homo sapiens) (P23975 whole entry): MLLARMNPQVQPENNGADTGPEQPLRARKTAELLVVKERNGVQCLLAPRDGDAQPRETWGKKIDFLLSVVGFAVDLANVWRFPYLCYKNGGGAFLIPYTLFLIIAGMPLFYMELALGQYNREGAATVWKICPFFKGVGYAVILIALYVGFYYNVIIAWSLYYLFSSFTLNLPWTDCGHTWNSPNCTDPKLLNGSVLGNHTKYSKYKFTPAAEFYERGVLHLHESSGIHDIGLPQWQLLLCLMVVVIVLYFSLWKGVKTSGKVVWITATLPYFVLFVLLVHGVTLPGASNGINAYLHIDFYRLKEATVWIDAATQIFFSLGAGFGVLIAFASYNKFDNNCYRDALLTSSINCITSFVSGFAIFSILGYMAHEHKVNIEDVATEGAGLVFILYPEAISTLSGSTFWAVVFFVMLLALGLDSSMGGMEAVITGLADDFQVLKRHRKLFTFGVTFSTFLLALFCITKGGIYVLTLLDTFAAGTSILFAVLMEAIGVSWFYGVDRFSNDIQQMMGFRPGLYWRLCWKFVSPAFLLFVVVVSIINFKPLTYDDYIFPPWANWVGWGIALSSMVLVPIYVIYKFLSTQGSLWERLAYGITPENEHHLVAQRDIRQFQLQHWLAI

CC[C@@H](Nc1c(C#N)c(-c2ccc(-c3cccc(C)c3F)cc2)nc2cnccc12)C(=O)O [BAY-091]
inactive: [1] 25% | [2] -5.39% | [3] 7.08% | [4] 1.4% | [5] 1.67% | [6] -0.44% | [7] 8.65% | [8] 2% | [9] 7.26% | [10] -0.39% | [11] 2.84% | [12] 1.17% | [13] 7.51% | [14] -6.19% | [15] 10% | [16] 1.92% | [17] 142% | [18] 6% | [19] -3.49% | [20] 2.82% | [21] 4.51% | [22] 23.5% | [23] 2.25% | [24] 5.88% | [25] 10.2% | [26] 2.41% | [27] 12.7% | [28] 1% | [29] 11.8% | [30] 3.59% | [31] 13.3% | [32] 29% | [33] -2.05% | [34] 9.92% | [35] 10.2% | [36] -3.49% | [37] 24.9% | [38] 6.22% | [39] 8.28% | [40] 2.41% | [41] 22% | [42] -4% | [43] 29% | [44] 0% | [45] 2.8% | [46] 13%

Reference: ChEMBL document CHEMBL4800729 (2021)
